Our source for the IC50, inhibition and activity values is patent US20190241569A1, “3-(ARYL OR HETEROARYL) METHYLENEINDOLIN-2-ONE DERIVATIVES AS INHIBITORS OF CANCER STEM CELL PATHWAY KINASES FOR THE TREATMENT OF CANCER” (Boston Biomedical, Inc., priority 2013, published 2019).

Like-named read-outs stand apart in the source and are kept apart here.

In assay [1] the test system is ACHN CSC. Put plainly: Cancer stem cells, Cell Titer-Glo 72 hours (Test Example 3). The format is cell-based. Conditions: Homo sapiens, ACHN, 72 h. A general note: Cellular ATP, detected with luciferase, serves as a proxy for viable cell number.
Assay [2] concerns FaDu CSC. The assay is described as above. The format is cell-based. As to conditions: Homo sapiens, FaDu, 72 h.
Assay [3] has as its system FaDu. Put plainly: Bulk cancer cells, Cell Titer-Glo 72 hours (Test Example 2). The class given is cell-based. As to conditions: Homo sapiens. As to the method: (§1) Tubes of 3× drug (60 uM in 500 uL complete media) were prepared from 5 mM stock solutions in DMSO. […] To treat cells, 50 uL of drug from the dilution plate was removed and added to the cell plates. […] Cells were harvested 72 hours after drug addition using Cell Titer-Glo (Promega) and luminescence measured on a plate reader.

Assay [4] deals with A549. Described as above. The class given is cell-based. Conditions: Homo sapiens. As to the method: as §1
In assay [5] the test system is ACHN. The assay is described as above. The format is cell-based. As to conditions: Homo sapiens, ACHN, 72 h. As to the method:
as §1

Assay [6] has as its system A549 CSC. The assay is described as follows: Cancer stem cells, Cell Titer-Glo 72 hours (Test Example 3). As to conditions: Homo sapiens. The class given is cell-based.
For assay [7], the target named is T1, human RIOK2 protein (Homo sapiens, UniProt Q9BVS4).
T1 construct: glutathione S-transferase is fused to N-terminal of a full-length human RIOK2 protein; GST (glutathione S-transferase) (N); purchased CarnaBio, Inc; host or cells: baculovirus-Sf21 cell expression system
T1 sequence (Q9BVS4 whole entry, the tested form may be a part): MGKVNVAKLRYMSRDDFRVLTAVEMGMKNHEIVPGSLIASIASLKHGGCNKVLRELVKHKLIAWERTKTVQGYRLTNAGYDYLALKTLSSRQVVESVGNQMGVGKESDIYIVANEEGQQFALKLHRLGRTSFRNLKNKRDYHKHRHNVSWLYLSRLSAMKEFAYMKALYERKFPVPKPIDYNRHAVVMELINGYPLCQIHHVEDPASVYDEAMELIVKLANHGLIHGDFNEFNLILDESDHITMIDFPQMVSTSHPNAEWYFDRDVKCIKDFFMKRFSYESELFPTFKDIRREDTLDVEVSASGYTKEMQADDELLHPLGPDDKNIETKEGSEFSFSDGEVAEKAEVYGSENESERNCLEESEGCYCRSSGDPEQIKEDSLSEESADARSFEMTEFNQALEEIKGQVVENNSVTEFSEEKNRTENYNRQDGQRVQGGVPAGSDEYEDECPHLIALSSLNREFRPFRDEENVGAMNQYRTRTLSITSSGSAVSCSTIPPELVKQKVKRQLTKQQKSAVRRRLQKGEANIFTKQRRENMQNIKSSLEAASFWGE
The assay is described as follows: RIOK2 autophosphorylation ELISA (Test Example 4). The format is biochemical. Background: In an ELISA, binding on a coated surface is turned into a signal by an enzyme label.

Assay [8] concerns p-AMPK Thr172. The assay is described as follows: Kinase inhibition, Western blot in HeLa cells (Test Example 5). The class given is cell-based. Conditions: Homo sapiens, 6 hours, DMSO = 100, read-out: p-AMPK Relative Intensity (%). As for the experimental part:
(§2) HeLa cells were treated with 5 uM of the indicated compound for 6 hours. Following compound incubation, cells were washed twice with ice-cold PBS and lysed in lysis buffer (50 mM HEPES, pH 7.5, 1% Nonidet P40, 150 mM NaCl, 1 mM EDTA, 1× protease inhibitor cocktail (Promega)). 30 micrograms of soluble protein was separated by SDS-PAGE and transferred to PVDF membranes. Primary antibodies against p-AMPK Thr172, p-RPS6 Ser235/236, p-RPS6 Ser240/244, and Tubulin (Cell Signaling Technology) were used. The antigen-antibody complexes were visualized by enhanced chemiluminescence (BioRad). The results are shown below in Tables 17A-17E.
(A western blot detects proteins with antibodies after separation by electrophoresis.)

In assay [9] the test system is p-RPS6 Ser240/244. The description is as above. The format is cell-based. As to conditions: Homo sapiens, 6 hours, DMSO = 100, read-out: p-RPS6 Ser240/244 Relative Intensity (%). As to the method: as §2
In assay [10] the test system is p-RPS6 Ser235/236. Described as above. The format is cell-based. Conditions: Homo sapiens, 6 hours, DMSO = 100, read-out: p-RPS6 Ser235/236 Relative Intensity (%). As to the method: as §2

As usually defined, the IC50 is the point on the concentration scale where inhibition reaches its midpoint. Read a high IC50 as weaker potency. `Cc1[nH]c(/C=C2\C(=O)Nc3ccc(-c4cnn(-c5ccccn5)c4)cc32)c(C)c1C(=O)NCCN1CCCC1` [Example 33]: the IC50 was 220 nM in [1]; 1650 nM in assay [2]; 2.53 µM in assay [3]; 2.53 µM in assay [4]; 1.64 µM in assay [5]; 11.7 µM in assay [6]. In assay [7] (read-out: Inhibitory activity at 1 μM (%)), the inhibition at 1 µM stood at 53%. Moreover, the inhibition at 10 µM in [7] (read-out: Inhibitory activity at 10 μM (%)) is 91%. The figures for the activity at 5 µM in assay [8] (5 uM), in [9] (5 uM) and in assay [10] (5 uM) were 52%, 92% and 82%, respectively.

`CCN(CC)CCNC(=O)c1c(C)[nH]c(/C=C2\C(=O)Nc3c2cccc3-c2ccncc2)c1C` [Example 284]: the IC50 in assay [1] was 4990 nM; in [2] it was 4410 nM; in [3], 6.74 µM; in assay [4], 6.85 µM; in [5], 6.39 µM; in assay [6], 12.6 µM. Besides, the activity at 5 µM in [8] (5 uM compound, Western blot) amounted to 56%; in assay [9] (5 uM compound, Western blot), 65%; in [10] (5 uM compound, Western blot), 60%.

Take `CCN(CC)CCNC(=O)c1c(C)[nH]c(/C=C2\C(=O)Nc3c2cccc3-c2ccc3cc[nH]c3c2)c1C` [Example 285]: the IC50 came to 1860 nM in assay [1]; 2060 nM in [2]; 2.77 µM in [3]; 2.91 µM in [4]; 3 µM in assay [5]; 3.9 µM in [6]. For the same molecule, the activity at 5 µM in assay [8] (5 uM compound, Western blot) is 39%; in [9] (5 uM compound, Western blot) it was 44%; in assay [10] (5 uM compound, Western blot), 29%.

On to `CCN(CC)CCNC(=O)c1c(C)[nH]c(/C=C2\C(=O)Nc3c2cccc3-c2cccnc2OC)c1C` [Example 286], for which the IC50 turned out to be 2710 nM in assay [1]; 1920 nM in assay [2]; 3.81 µM in assay [3]; 5.32 µM in [4]; 3.64 µM in [5]; 6.87 µM in [6]. Moreover, the activity at 5 µM amounted to 31% in assay [8] (5 uM compound, Western blot); 54% in assay [9] (5 uM compound, Western blot); 48% in [10] (5 uM compound, Western blot).
